Measured values: US20080206287A1, “Use of cyclosporin A to sensitize resistant cancer cells to death receptor ligands” (priority 2006, published 2008)
“Also recorded” adds a separate entry of the source.

How the values were obtained:
ten tumor cell lines = assay: CH-11 killing of a spectrum of malignant cell lines; format: cell-based; conditions: increasing concentrations with or without CH-11
Protocol: Effects of small molecule sensitizers on CH-11 killing of a spectrum of malignant cell lines. To assess the spectrum of activity of the small molecule FAS sensitizers, an additional nine malignant cell lines derived from breast, ovarian, and prostate carcinomas were treated with increasing concentrations of the sensitizers in the presence or absence of CH-11. […] None of the other compounds sensitized more than four of ten tumor lines to CH-11. […] Also, all of the non-responding cell lines, except Colo 205, had detectable levels of FLIP by immunoblotting. Thus, the failure of 609411 and 5809354 to sensitize these tumor lines to anti-FAS antibody was not due to either lack of FAS expression or absence of FLIP, with rare exception.

FLIP = FLIP protein immunoblot; format: cell-based, human; conditions: for levels of FLIP protein (long isoform): PPC-1 cells, with or without CH-11, 24 hours, immunoblot
Protocol: Immunoblot analysis. Protein extracts were obtained by washing cells with phosphate-buffered saline (PBS) [pH 7.4] and suspending the cells in lysis buffer [10 mM Tris (pH 7.4), 150 mM NaCl, 0.1% Triton X-100, 0.5% sodium deoxycholate, and 5 mM EDTA] containing protease inhibitors (Complete tablets; Roche, Indianapolis, Ind.). Immunoblot assays were performed as described in Carter et al. (Blood 105:4043-4050, 2005). Briefly, equal amounts of protein as determined by a Bradford assay (Bradford, Anal. Biochem. 72:248-54, 1976) were subjected to SDS-PAGE (4-20% gradient gels from ISC BioExpress, Kaysville, Utah), followed by transfer to nitrocellulose membranes. Membranes were incubated with mouse monoclonal anti-human FLIP (NF6 clone) (1:500 v/v) (Alexis, San Diego, Calif.), 1:1,000 (v/v) anti-aspase-8 clone 5F7 (Upstate) and mouse monoclonal anti-tubulin (1:2000 v/v) (Sigma Inc). Secondary antibodies consisted of horseradish peroxidase-conjugated goat anti-rabbit IgG or goat anti-mouse IgG (Bio-Rad, Hercules, Calif.). Detection was performed by the enhanced chemiluminescence method (Pierce, Rockford, Ill.).
Effects of sensitizing compounds on FLIP protein. Since FAS-sensitizing compounds 6094911 and 5809354 modulate the extrinsic pathway downstream of TNF-family death receptors but upstream of effector caspases, the effects of those compounds on expression of FLIP, an intracellular antiapoptotic protein that binds caspases-8 and -10 and is capable of suppressing death receptor signaling at a proximal point within the extrinsic pathway, was examined. For these experiments, PPC-1 cells were treated with sensitizing compounds in the presence or absence of CH-11 antibody, then cell lysates were prepared 24 hours later, and analyzed by immunoblotting for FLIP.
The levels of the short isoform of FLIP were less than 5% of total FLIP protein as measured by immunoblotting and quantitative densitometry. Therefore, given the very low levels of the short isoform, the analysis was limited to the effects of the compounds on the long isoform of FLIP.

FLIP mRNA = FLIP mRNA quantitative RT-PCR; format: cell-based; conditions: responding and non-responding cell lines
Protocol: Quantitative RT-PCR. The cDNAs encoding the long isoform of FLIPL and GAPDH were amplified using the following primer pairs: 5′-[…]-3′ (forward primer for FLIP; SEQ ID NO:1), 5′-[…]-3′ (reverse primer for FLIP; SEQ ID NO:2), 5′-GAAGGTGAAGGTCGGAGTC-3′ (forward primer for GAPDH; SEQ ID NO:3), and 5′-[…]-3′ (reverse primer for GAPDH; SEQ ID NO:4). Equal amounts of cDNA for each sample were added to a prepared master mix (SYBR Green PCR Master mix, Applied Biosystems, Foster City, Calif.). Real-time quantitative PCR reactions were performed on an ABI Prism 7700 sequence detection system (Applied Biosystems, Foster City, Calif., USA). The relative abundance of a transcript was represented by the threshold cycle of amplification (CT), which is inversely correlated to the amount of target RNA/first strand cDNA being amplified. To normalize for equal amounts of the latter, the transcript levels of the putative housekeeping gene GAPDH were assayed. The comparative CT method was calculated as per manufacturer's instructions. To normalize the CT of FLIP for each sample, the following ratio was calculated: CT(FLIP)/CT(GAPDH). The expression level of FLIP relative to the baseline level was calculated as 2^−ΔΔCT(FLIP), where ΔCT is (average FLIP CT-average GAPDH CT) and ΔΔCT is (average ΔCT untreated sample−average ACT treated sample.
To determine whether the reductions in FLIP protein occurred at the level of mRNA or protein, FLIP mRNA expression was measured by Quantitative RT-PCR in cells treated with 5809354 or buffer control.

[1] = tested on: PPC-1, OVCAR-3, T47D, MDA-MB-468 and DU 145 cells; assay: FLIP siRNA knock-down and CH-11 killing; format: cell-based; conditions: PPC-1 cells transfected with FLIP siRNA
Protocol: Transfection of siRNA oligonucleotides. Double-stranded SMARTPOOL siRNA oligonucleotides targeting c-FLIP mRNA and double-stranded firefly luciferase control siRNA (Dharmacon Research, Lafayette, Colo.) (10 nM) were transfected into cells with Lipofectamine according to the manufacturer's instructions.
To test the functional importance of decreases in FLIP by 5809354, it was determined whether knocking down FLIP could recapitulate the activity of the molecule and abrogate 5809354's ability to sensitize cells to CH-11. PPC-1 cells were transfected with double stranded siRNA that targeted FLIP or luciferase as a control. At 24 hours after transfection, cells were treated with increasing concentrations of 5809354 with or without CH-11.

| Compound | tumor cell lines sensitized to CH-11 (ten tumor cell lines) | levels of FLIP protein (long isoform) (FLIP) | FLIP mRNA expression (FLIP mRNA) | levels of FLIP (FLIP; non-responding cell lines DU145 and MDA-MB-468) | enhancement of CH-11-mediated killing in the presence of FLIP siRNA [1] |
| --- | --- | --- | --- | --- | --- |
| CC(=O)CC(=O)Nc1ccc(Cl)c(C(F)(F)F)c1 [compound 6094911, N-[4-chloro-3-(trifluoromethyl)phenyl]-3-oxobutanamide] | sensitized four of ten tumor cell lines to CH-11; also recorded: sensitizing 4 of 10 tumor lines; also recorded: enhanced FAS-induced killing of several tumor cell lines | did not alter levels of FLIP protein | did not reduce FLIP mRNA |  |  |
| O=C(CCCOc1ccc(Cl)cc1Cl)NO [compound 5809354, 4-(2,4-dichlorophenoxy)-N-hydroxybutanamide] | sensitized the same tumor lines with the exception of HT29 | decreased levels of FLIP protein | reduced expression of FLIP mRNA; also recorded: decreased FLIP mRNA | decreased | the longer enhanced CH-11-mediated killing |
| CCn1c(=N)n(CC(=O)c2cc(C(C)(C)C)c(O)c(C(C)(C)C)c2)c2ccccc21 [compound 5569100, 1-(3,5-Di-tert-butyl-4-hydroxy-phenyl)-2-(3-ethyl-2-imino-2,3-dihydro-benzoimidazol-1-yl)-ethanone] |  | decreased levels of FLIP protein; also recorded: reduced FLIP expression | did not reduce FLIP mRNA |  |  |
